The values that follow are results of earlier work, collected in patent US20090030057A1, “Pharmaceutical composition of telmisartan” (priority 2005, published 2009).

Like-named read-outs stand apart in the source and are kept apart here.

Consider `CCCc1nc2c(C)cc(-c3nc4ccccc4n3C)cc2n1Cc1ccc(-c2ccccc2C(=O)O)cc1` [Telmisartan, 4′-[2-n-propyl-4-methyl-6-(1-methylbenzimid-azol-2-yl)benzimidazol-1-ylmethyl]biphenyl-2-carboxylic acid], for which the solubility entry is, setting by setting: (in a strong acid (with the exception of hydrochloric acid)) “sparingly soluble”; (in a strong base) “soluble”; (in hydrochloric acid) “insoluble”; (in water or an aqueous solution in the pH range of 3 to 9) “practically insoluble”.
